From ChEMBL document CHEMBL1201862, “PubChem BioAssay data set” (2004) come the findings set out here.

Among the test systems are DU-145; IGROV-1; OVCAR-4; HCT-116; KM12; UO-31; OVCAR-5; MDA-MB-435; NCI/ADR-RES; A498; HL-60; MOLT-4; MDA-MB-231; SF-295; SF-268; HOP-92; HCC 2998; HOP-62; A549; SN12C.
Holding throughout (test): growth of human tumour cells (NCI), 48 h

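Assay format: 96-well plates, 48-hour exposure. The concentration for 50% growth inhibition is given as GI50.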 Activity calls are given as the source filed them. Cut-off read from the data, not from the text of the source: active = GI50 up to about 1.1 µM and inactive = higher.

With `N=C(N)NCCNC(=N)N`, the GI50 with DU-145, in the experiment with IGROV-1, in the experiment with OVCAR-4, in the experiment with HCT-116, in the experiment on KM12 and in the experiment with UO-31 was > 100 µM (inactive) each time. Moreover, the GI50 in the experiment with OVCAR-5, in the experiment on MDA-MB-435, with NCI/ADR-RES, in the experiment on A498, in the experiment with HL-60 and with MOLT-4 was > 100 µM (inactive) in each case. For the same compound, the GI50 in the experiment with MDA-MB-231, in the experiment with SF-295, in the experiment on SF-268, in the experiment on HOP-92, with HCC 2998 and in the experiment on HOP-62 was > 100 µM (inactive) in each case. The GI50 was > 100 µM (inactive) in the experiment with A549 and 85.1 µM (inactive) in the experiment with SN12C.

As for `C[N+](C)(C)CC1CCCc2ccccc2C1=O` (stereo not given), the GI50 was > 42.1 µM (inactive) in the experiment with DU-145; 16.6 µM (inactive) in the experiment with IGROV-1; 6.92 µM (inactive) in the experiment with OVCAR-4; 1.87 µM (inactive) in the experiment on HCT-116; 9.86 µM (inactive) in the experiment with KM12; 16.9 µM (inactive) in the experiment on UO-31. Moreover, the GI50 is 13.3 µM (inactive) with OVCAR-5; 5.89 µM (inactive) in the experiment on MDA-MB-435; 7.06 µM (inactive) in the experiment with NCI/ADR-RES; 14 µM (inactive) in the experiment with A498; 1.89 µM (inactive) in the experiment with HL-60; 2.48 µM (inactive) in the experiment with MOLT-4. The GI50 in the experiment on MDA-MB-231 was 16.3 µM (inactive); in the experiment with SF-295, > 40.5 µM (inactive); in the experiment with SF-268, 22 µM (inactive); in the experiment on HOP-92, 13.2 µM (inactive); in the experiment with HCC 2998, 20.6 µM (inactive); in the experiment with HOP-62, 18.8 µM (inactive). Further, the GI50 in the experiment with A549 is 4.06 µM (inactive); in the experiment on SN12C, 6.68 µM (inactive).

In the case of `CCN(CC)Cc1cc(/N=N\c2c(O)ccc3c(/N=N\c4ccc(O)c(CN(CC)CC)c4)c(O)ccc23)ccc1O`, the GI50 with DU-145 was 2.65 µM (inactive); in the experiment with IGROV-1, 2.99 µM (inactive); with OVCAR-4 it was 1.77 µM (inactive); with HCT-116, 1.94 µM (inactive); in the experiment on KM12, 1.18 µM (inactive); in the experiment on UO-31 it was 2 µM (inactive). Further, the GI50 was 6.49 µM (inactive) in the experiment with OVCAR-5; 3.65 µM (inactive) in the experiment with MDA-MB-435; 4.57 µM (inactive) in the experiment with NCI/ADR-RES; 13.3 µM (inactive) with A498; 1.8 µM (inactive) in the experiment on HL-60; 1.13 µM (inactive) in the experiment on MOLT-4. Moreover, the GI50 with MDA-MB-231 was 2.05 µM (inactive); in the experiment on SF-295, 5.01 µM (inactive); with SF-268, 4.56 µM (inactive); with HOP-92, 4.58 µM (inactive); with HCC 2998, 1.71 µM (inactive); in the experiment with HOP-62 it was 2.79 µM (inactive). Moreover, the figures for the GI50 in the experiment on A549 and with SN12C were 2.42 µM (inactive) and 3.92 µM (inactive), respectively.

With `O=C(CN1CCN(C(=O)OCc2ccccc2)CCN(CC(=O)N2CCCCC2)CCN(C(=O)OCc2ccccc2)CC1)N1CCCCC1`, the GI50 was 21.4 µM (inactive) in the experiment on DU-145; 10.3 µM (inactive) with IGROV-1; 4.8 µM (inactive) in the experiment with OVCAR-4; 4.88 µM (inactive) in the experiment with HCT-116; 17.7 µM (inactive) in the experiment with KM12; 3.19 µM (inactive) in the experiment on UO-31. Besides, the GI50 with OVCAR-5 is 19.6 µM (inactive); in the experiment with MDA-MB-435, 16.1 µM (inactive); in the experiment on NCI/ADR-RES, 10.9 µM (inactive); in the experiment with A498 it was 16.7 µM (inactive); in the experiment with HL-60, 10.6 µM (inactive); in the experiment on MOLT-4, 7.41 µM (inactive). In addition, the GI50 is 14.2 µM (inactive) with MDA-MB-231; 18.7 µM (inactive) in the experiment on SF-295; 15.8 µM (inactive) in the experiment on SF-268; 12.9 µM (inactive) with HOP-92; 11.2 µM (inactive) in the experiment on HCC 2998; 19.5 µM (inactive) in the experiment on HOP-62. In addition, the GI50 was 20.8 µM (inactive) in the experiment on A549 and 11.6 µM (inactive) with SN12C.

As for `CCN(CC)C(=S)N/N=C(/c1ccccc1)c1ccccn1`, the GI50 with DU-145 is 0.402 µM (active); in the experiment on IGROV-1, 0.195 µM (active); in the experiment on OVCAR-4, 0.504 µM (active); in the experiment on HCT-116, 0.0454 µM (active); in the experiment with KM12, 0.0942 µM (active); in the experiment with UO-31 it was 0.459 µM (active). Also, the GI50 in the experiment with OVCAR-5 is 0.238 µM (active); in the experiment on MDA-MB-435, 0.705 µM (active); in the experiment on NCI/ADR-RES, 0.27 µM (active); with A498 it was 0.311 µM (active); with HL-60, 0.264 µM (active); in the experiment on MOLT-4, < 0.0507 µM (active). Moreover, the GI50 was 0.0265 µM (active) with MDA-MB-231; 0.342 µM (active) with SF-295; 0.0256 µM (active) in the experiment on SF-268; 1.65 µM (inactive) with HOP-92; 2.15 µM (inactive) in the experiment on HCC 2998; 0.292 µM (active) in the experiment with HOP-62. Also, the GI50 is 0.349 µM (active) in the experiment with A549 and 0.214 µM (active) in the experiment with SN12C.

As for `O=C1CSC(c2ccccc2O)N1c1ccc(-n2c(-c3ccccc3)nc3ccccc3c2=O)cc1` (stereo not given), the GI50 with DU-145 was 29.2 µM (inactive); in the experiment on IGROV-1 it was 25.5 µM (inactive); with OVCAR-4 it was 30.4 µM (inactive); with HCT-116, 11 µM (inactive); in the experiment on KM12, 20.9 µM (inactive); in the experiment with UO-31, 18.9 µM (inactive). Moreover, the GI50 was 30.8 µM (inactive) with OVCAR-5; 24.4 µM (inactive) in the experiment on MDA-MB-435; 21 µM (inactive) in the experiment on NCI/ADR-RES; 29.7 µM (inactive) in the experiment with A498; 21.6 µM (inactive) in the experiment with HL-60; 13.2 µM (inactive) in the experiment on MOLT-4. Also, the GI50 in the experiment on MDA-MB-231 was 4.76 µM (inactive); in the experiment on SF-295 it was 16.4 µM (inactive); with SF-268 it was 50.1 µM (inactive); with HOP-92, 20.8 µM (inactive); in the experiment with HCC 2998 it was 28.5 µM (inactive); with HOP-62, 20.6 µM (inactive). Also, the GI50 with A549 is 38.4 µM (inactive); in the experiment on SN12C, 30.3 µM (inactive).

Consider `COC(=O)CC1C2CC3C(C2=O)C13` (stereo not given), for which the GI50 in the experiment with DU-145, in the experiment on IGROV-1, in the experiment with OVCAR-4, in the experiment on HCT-116, with KM12 and with UO-31 was > 100 µM (inactive) throughout. Besides, the GI50 in the experiment with OVCAR-5 is > 100 µM (inactive); in the experiment with MDA-MB-435 it was > 100 µM (inactive); in the experiment with NCI/ADR-RES it was > 100 µM (inactive); in the experiment on A498, > 100 µM (inactive); in the experiment on HL-60, 33.6 µM (inactive); with MOLT-4, > 100 µM (inactive). The GI50 with MDA-MB-231, in the experiment with SF-295, in the experiment on SF-268, in the experiment on HOP-92, in the experiment with HCC 2998 and in the experiment on HOP-62 was > 100 µM (inactive) throughout. Besides, the GI50 with A549 and with SN12C was > 100 µM (inactive) throughout.

Turning to `O=C(CSc1nc2ccccc2c(=O)n1-c1ccccc1)N/N=C1\C(=O)Nc2ccc(Br)cc21`, the GI50 in the experiment with DU-145 was 2.13 µM (inactive); in the experiment on IGROV-1, 2.14 µM (inactive); with OVCAR-4, 2.58 µM (inactive); in the experiment with HCT-116, 2.26 µM (inactive); in the experiment with KM12, 2.44 µM (inactive); in the experiment with UO-31 it was 2.28 µM (inactive). Moreover, the GI50 in the experiment on OVCAR-5 was 2.92 µM (inactive); in the experiment on MDA-MB-435, 5.71 µM (inactive); in the experiment on NCI/ADR-RES, 2.99 µM (inactive); in the experiment with A498, 6.21 µM (inactive); in the experiment on HL-60 it was 3.21 µM (inactive); with MOLT-4, 3.33 µM (inactive). Further, the GI50 in the experiment with MDA-MB-231 was 1.65 µM (inactive); in the experiment with SF-295, 2.81 µM (inactive); in the experiment with SF-268, 5.48 µM (inactive); in the experiment with HOP-92, 2.7 µM (inactive); in the experiment on HCC 2998, 8.17 µM (inactive); in the experiment with HOP-62 it was 2.59 µM (inactive). In addition, the GI50 in the experiment on A549 was 2.3 µM (inactive); with SN12C it was 1.71 µM (inactive).

For the compound `NC(=O)NC(=O)CCC(NS(=O)(=O)c1ccccc1)C(=O)NC(N)=O` (stereo not given), the GI50 with DU-145, with IGROV-1, with OVCAR-4, in the experiment on HCT-116, with KM12 and with UO-31 was > 100 µM (inactive) throughout. Moreover, the GI50 with OVCAR-5, with MDA-MB-435, in the experiment on NCI/ADR-RES, in the experiment with A498, with HL-60 and in the experiment with MOLT-4 was > 100 µM (inactive) throughout. For the same compound, the GI50 with MDA-MB-231, with SF-295, in the experiment on SF-268, in the experiment on HOP-92, with HCC 2998 and with HOP-62 was > 100 µM (inactive) in each case. Moreover, the GI50 in the experiment on A549 and with SN12C was > 100 µM (inactive) each time.

In the case of `Cc1ccc(NC(=O)c2cccc(OP(=O)(O)Nc3ccc(C)cc3)c2)cc1`, the GI50 with DU-145 was > 100 µM (inactive); with IGROV-1, > 100 µM (inactive); with OVCAR-4, 72.8 µM (inactive); in the experiment with HCT-116, > 100 µM (inactive); in the experiment with KM12, > 100 µM (inactive); in the experiment on UO-31, 88.1 µM (inactive). The GI50 in the experiment on OVCAR-5 is > 100 µM (inactive); in the experiment with MDA-MB-435, > 100 µM (inactive); with NCI/ADR-RES it was > 100 µM (inactive); in the experiment on A498, > 100 µM (inactive); in the experiment on HL-60, > 100 µM (inactive); in the experiment on MOLT-4, 64.6 µM (inactive). The GI50 in the experiment on MDA-MB-231 is 74.1 µM (inactive); in the experiment on SF-295 it was > 100 µM (inactive); in the experiment with SF-268, > 100 µM (inactive); in the experiment on HOP-92, 37.2 µM (inactive); in the experiment with HCC 2998, > 100 µM (inactive); in the experiment with HOP-62, > 100 µM (inactive). For the same compound, the results for the GI50 with A549 and in the experiment on SN12C were 71.8 µM (inactive) and > 100 µM (inactive), respectively.
